Common to all, as to experiment: Kinobeads competition binding, HL60 cell lysate
Conditions in all cases: 10 μM free compound

For experiment [1], the target named is CaMKK2 (Homo sapiens, UniProt Q96RR4). Also noted: endogenous in cells. A digest of the protocol: (§1)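 Target occupancy is inferred from reduced capture of each kinase on compound-coupled beads after lysate pre-treatment with 10 μM free compound, relative to a DMSO lysate. Quantitation used isobaric iTRAQ tags and tandem MS.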
Experiment [2] concerns the target JNK2 (Homo sapiens, UniProt P45984). Also on record: endogenous in cells. A digest of the protocol: as §1
The target in experiment [3] is PAK4 (Homo sapiens, UniProt O96013). Also on record: endogenous in cells. A digest of the protocol: as §1
In experiment [4] the target is T1, PKD3 (Homo sapiens, UniProt O94806).
T1 sequence (O94806 1-890): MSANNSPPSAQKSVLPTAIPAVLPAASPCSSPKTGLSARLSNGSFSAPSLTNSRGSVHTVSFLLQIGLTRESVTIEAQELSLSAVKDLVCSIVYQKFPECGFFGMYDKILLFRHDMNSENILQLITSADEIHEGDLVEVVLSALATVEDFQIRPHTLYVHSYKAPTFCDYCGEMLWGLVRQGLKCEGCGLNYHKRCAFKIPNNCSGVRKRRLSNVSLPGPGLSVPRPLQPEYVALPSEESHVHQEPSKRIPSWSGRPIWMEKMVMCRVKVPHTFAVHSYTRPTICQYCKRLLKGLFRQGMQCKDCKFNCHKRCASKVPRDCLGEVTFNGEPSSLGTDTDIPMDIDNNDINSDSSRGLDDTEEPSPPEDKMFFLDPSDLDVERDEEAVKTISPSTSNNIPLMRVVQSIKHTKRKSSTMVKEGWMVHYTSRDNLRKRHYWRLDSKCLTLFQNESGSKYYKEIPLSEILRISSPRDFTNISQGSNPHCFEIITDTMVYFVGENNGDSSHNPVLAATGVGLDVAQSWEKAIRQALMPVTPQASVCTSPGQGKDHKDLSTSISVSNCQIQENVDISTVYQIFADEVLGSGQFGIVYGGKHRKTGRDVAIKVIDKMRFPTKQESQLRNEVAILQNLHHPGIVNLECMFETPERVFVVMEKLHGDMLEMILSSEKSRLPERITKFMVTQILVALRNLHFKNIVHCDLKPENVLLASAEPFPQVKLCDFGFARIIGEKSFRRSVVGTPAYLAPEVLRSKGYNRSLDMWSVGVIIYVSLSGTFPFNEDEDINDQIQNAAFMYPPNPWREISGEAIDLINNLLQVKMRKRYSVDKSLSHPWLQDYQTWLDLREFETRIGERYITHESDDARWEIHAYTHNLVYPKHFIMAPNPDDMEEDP
Also on record: endogenous in cells. A digest of the protocol:
as §1

The target of experiment [5] is Wee1 (Homo sapiens, UniProt P30291). Also on record: endogenous in cells. A digest of the protocol:
as §1

Experiment [6] has as its target HPK1 (Homo sapiens, UniProt Q92918). Also noted: endogenous in cells; host or cells: HL60. As to the method: (§2) To one aliquot of cell lysate 10 μM of the free compound (FIG. 3, CZC31326) was added and allowed to bind to proteins in the lysate. Then the affinity matrix with the immobilized compound (Example 1) was added to capture proteins that were not interacting with the previously added free compound. Beads were separated from the lysate and bead bound proteins were eluted in SDS sample buffer and subsequently separated by SDS-Polyacrylamide gel electrophoresis (FIG. 4). Suitable gel bands were cut out and subjected to in-gel proteolytic digestion with trypsin. The second lysate aliquot was processed identically, however no free compound was added (DMSO solvent control). Peptides originating from samples 1 and 2 were labeled with iTRAQ reagents (iTRAQ 114 and iTRAQ 117) and the combined samples were analyzed with a nano-flow liquid chromatography system coupled online to a tandem mass spectrometer (LC-MS/MS) experiment followed by iTRAQ reporter ion quantification in the MS/MS spectra (Ross et al., 2004. Mol. Cell. Proteomics 3(12):1154-1169). Further experimental protocols can be found in WO2006/134056 and a previous publication (Bantscheff et al., 2007. Nature Biotechnology 25, 1035-1044). Sepharose-beads with the immobilized compound (100 μl beads per pull-down experiment) were equilibrated in lysis buffer and incubated with a cell lysate sample containing 50 mg of protein on an end-over-end shaker (Roto Shake Genie, Scientific Industries Inc.) for 2 hours at 4° C. Beads were collected, transferred to Mobicol-columns (MoBiTech 10055) and washed with 10 ml lysis buffer containing 0.4% NP40 detergent, followed by 5 ml lysis buffer containing 0.2% detergent. To elute bound proteins, 60 μl 2×SDS sample buffer was added to the column. The column was incubated for 30 minutes at 50° C. and the eluate was transferred to a siliconized microfuge tube by centrifugation. Proteins were then alkylated with 108 mM iodoacetamid. Proteins were then separated by SDS-Polyacrylamide electrophoresis (SDS-PAGE). The peptide extracts of samples treated with 10 μM of free compound (CZC31326) and the solvent control (0.5% DMSO) were treated with different variants of the isobaric tagging reagent (iTRAQ Reagents Multiplex Kit, part number 4352135, Applied Biosystems, Foster City, Calif., USA). The iTRAQ reagents are a set of multiplexed, amine-specific, stable isotope reagents that can label peptides on amino groups in up to four different biological samples enabling simultaneous identification and quantitation of peptides. The iTRAQ reagents were used according to instructions provided by the manufacturer. The samples were resuspended in 10 μl 50 mM TEAB solution, pH 8.5 and 10 μl ethanol were added. The iTRAQ reagent was dissolved in 120 μl ethanol and 10 μl of reagent solution were added to the sample. The labeling reaction was performed at room temperature for one hour on a horizontal shaker and stopped by adding 5 μl of 100 mM TEAB and 100 mM glycine in water. The two labeled sampled were then combined, dried in a vacuum centrifuge and resuspended in 10 μl of 0.1% formic acid in water. Relative protein quantitation was performed using peak areas of iTRAQ reporter ion signals essentially as described in an earlier publication (Bantscheff et al., 2007. Nature Biotechnology 25, 1035-1044).

Experiment [7] concerns the target TYK2 (Homo sapiens, UniProt P29597). Also noted: endogenous in cells; host or cells: HL60. As to the method: as §2

The values below come from US20120270237A9, “METHODS FOR THE IDENTIFICATION OF KINASE INTERACTING MOLECULES AND FOR THE PURIFICATION OF KINASE PROTEINS” (Cellzone AG, priority 2009, published 2012).

As a reminder, the inhibition is the percentage by which the read-out fell short of the control.

Chain of TYK2 (P29597 whole entry): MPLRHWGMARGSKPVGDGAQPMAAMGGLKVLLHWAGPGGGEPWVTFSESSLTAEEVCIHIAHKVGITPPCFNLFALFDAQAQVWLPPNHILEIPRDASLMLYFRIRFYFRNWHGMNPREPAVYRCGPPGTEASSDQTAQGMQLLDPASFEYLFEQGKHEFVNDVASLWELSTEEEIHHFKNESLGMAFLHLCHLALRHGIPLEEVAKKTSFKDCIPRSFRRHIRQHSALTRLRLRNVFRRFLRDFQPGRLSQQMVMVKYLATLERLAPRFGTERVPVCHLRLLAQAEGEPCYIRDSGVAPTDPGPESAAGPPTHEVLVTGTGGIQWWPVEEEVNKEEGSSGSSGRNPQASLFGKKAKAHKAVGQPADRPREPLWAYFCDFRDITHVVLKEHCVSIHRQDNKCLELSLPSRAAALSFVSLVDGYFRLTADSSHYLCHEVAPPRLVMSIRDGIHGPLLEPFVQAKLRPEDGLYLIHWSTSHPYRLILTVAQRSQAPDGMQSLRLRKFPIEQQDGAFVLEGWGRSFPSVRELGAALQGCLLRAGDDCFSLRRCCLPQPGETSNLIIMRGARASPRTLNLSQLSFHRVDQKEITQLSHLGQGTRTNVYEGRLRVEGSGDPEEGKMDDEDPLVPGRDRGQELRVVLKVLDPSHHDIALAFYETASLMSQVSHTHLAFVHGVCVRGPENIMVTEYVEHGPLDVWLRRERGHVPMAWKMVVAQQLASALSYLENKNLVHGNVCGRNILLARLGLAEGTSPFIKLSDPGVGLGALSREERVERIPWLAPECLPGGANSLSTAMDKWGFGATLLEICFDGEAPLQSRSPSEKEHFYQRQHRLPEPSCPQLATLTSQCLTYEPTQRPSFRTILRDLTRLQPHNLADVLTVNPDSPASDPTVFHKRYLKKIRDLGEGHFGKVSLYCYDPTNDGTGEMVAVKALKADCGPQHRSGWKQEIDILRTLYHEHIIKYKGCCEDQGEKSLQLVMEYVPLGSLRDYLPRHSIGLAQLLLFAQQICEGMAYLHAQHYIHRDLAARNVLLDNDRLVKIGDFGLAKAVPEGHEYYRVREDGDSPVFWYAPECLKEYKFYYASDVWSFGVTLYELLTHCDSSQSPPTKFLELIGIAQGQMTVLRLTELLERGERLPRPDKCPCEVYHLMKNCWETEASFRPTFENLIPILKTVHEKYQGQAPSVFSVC
Chain of HPK1 (Q92918 whole entry): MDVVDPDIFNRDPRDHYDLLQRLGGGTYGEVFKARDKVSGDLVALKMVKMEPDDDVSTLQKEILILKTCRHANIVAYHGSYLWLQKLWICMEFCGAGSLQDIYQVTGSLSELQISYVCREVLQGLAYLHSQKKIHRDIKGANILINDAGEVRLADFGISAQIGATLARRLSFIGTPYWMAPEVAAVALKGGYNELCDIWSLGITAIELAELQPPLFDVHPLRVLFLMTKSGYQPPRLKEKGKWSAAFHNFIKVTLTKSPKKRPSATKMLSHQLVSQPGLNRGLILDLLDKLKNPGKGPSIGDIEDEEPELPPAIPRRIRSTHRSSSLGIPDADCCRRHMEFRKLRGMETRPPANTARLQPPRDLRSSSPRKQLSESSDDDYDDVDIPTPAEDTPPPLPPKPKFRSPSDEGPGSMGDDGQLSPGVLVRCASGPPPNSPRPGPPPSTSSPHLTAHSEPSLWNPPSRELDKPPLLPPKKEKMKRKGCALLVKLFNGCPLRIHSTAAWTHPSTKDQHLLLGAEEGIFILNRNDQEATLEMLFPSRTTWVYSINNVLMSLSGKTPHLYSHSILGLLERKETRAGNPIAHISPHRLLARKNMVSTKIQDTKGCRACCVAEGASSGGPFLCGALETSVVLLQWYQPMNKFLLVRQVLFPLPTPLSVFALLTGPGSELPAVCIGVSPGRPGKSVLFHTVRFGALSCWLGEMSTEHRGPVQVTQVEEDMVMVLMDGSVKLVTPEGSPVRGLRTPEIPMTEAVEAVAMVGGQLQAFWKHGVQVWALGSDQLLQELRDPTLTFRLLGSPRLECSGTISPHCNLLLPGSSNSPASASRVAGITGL
Chain of Wee1 (P30291 whole entry): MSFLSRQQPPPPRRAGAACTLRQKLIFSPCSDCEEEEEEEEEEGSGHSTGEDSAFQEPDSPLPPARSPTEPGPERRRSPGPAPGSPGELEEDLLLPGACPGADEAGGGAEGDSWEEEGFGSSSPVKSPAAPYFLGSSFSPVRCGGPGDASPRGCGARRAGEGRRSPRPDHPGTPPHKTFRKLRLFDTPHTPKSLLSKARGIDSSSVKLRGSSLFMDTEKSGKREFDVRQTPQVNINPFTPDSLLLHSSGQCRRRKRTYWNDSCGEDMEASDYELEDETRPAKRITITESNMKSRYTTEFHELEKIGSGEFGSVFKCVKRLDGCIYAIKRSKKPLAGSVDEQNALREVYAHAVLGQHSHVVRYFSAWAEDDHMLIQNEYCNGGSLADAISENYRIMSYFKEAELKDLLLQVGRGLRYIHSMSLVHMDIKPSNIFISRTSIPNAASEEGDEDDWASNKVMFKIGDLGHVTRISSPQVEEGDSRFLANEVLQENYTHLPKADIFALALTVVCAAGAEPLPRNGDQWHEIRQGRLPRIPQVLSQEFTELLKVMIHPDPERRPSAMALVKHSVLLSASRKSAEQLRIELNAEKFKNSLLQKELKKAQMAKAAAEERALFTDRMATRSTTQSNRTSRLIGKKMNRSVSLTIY
Chain of CaMKK2 (Q96RR4 whole entry): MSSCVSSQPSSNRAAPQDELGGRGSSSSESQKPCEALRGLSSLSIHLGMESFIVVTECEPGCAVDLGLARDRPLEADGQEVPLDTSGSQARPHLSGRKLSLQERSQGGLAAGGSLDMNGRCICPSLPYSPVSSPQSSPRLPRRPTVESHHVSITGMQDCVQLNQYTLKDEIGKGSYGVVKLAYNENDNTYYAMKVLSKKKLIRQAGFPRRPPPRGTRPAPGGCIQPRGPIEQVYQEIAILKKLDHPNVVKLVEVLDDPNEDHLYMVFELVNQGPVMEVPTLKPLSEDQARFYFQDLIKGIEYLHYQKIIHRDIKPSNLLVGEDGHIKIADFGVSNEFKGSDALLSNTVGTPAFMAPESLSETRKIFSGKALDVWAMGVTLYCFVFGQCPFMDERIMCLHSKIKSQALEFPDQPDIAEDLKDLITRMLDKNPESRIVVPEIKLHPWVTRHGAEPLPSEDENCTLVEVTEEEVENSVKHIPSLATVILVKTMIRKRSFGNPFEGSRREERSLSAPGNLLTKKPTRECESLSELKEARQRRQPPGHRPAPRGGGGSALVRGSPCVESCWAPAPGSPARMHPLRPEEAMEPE
Chain of JNK2 (P45984 whole entry): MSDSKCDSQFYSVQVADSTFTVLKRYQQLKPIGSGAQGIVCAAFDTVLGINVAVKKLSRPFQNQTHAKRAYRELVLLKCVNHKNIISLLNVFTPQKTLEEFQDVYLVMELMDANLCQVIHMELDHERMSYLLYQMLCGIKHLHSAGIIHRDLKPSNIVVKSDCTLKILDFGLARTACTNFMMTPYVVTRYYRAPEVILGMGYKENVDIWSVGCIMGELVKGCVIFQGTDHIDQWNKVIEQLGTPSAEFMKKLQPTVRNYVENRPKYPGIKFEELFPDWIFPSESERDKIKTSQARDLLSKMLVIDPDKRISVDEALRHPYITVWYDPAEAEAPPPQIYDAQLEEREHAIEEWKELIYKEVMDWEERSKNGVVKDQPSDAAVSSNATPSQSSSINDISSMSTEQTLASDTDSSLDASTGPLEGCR
Chain of PAK4 (O96013 whole entry): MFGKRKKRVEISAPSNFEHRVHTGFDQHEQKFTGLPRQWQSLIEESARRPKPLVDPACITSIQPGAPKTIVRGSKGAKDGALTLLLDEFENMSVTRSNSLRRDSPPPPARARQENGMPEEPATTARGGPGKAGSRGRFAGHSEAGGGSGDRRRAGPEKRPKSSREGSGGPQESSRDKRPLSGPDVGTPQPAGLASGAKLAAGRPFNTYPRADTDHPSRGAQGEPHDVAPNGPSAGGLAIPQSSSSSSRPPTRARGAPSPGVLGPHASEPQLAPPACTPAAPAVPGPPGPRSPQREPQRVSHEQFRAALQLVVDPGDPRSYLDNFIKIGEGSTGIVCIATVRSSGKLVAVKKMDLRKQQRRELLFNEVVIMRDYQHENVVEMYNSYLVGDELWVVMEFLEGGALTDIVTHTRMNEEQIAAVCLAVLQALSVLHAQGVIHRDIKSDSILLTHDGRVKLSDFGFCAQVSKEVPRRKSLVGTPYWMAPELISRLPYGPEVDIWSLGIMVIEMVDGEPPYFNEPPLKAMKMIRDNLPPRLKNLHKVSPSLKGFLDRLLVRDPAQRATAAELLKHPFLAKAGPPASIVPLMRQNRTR

As for `CS(=O)(=O)Nc1ccccc1Nc1nc(Nc2cccc(OCCN)c2)ncc1Cl` [CZC31326, N-(2-(2-(3-(2-aminoethoxy)phenylamino)-5-chloropyrimidin-4-ylamino)phenyl)methanesulfonamide], the inhibition at 10 µM in experiment [1] stood at 98.1%; in experiment [3], 97.5%; in experiment [4], 96.9%; in experiment [5], 98.2%; in experiment [6], 97.7%. Besides, the Competition % in experiment [2] was 87.8%; in experiment [7], 97.1%.
